Assay [1] has as its system L. donovani HU3 strain in mouse peritoneal macrophages. Nature of the assay: Assay for proliferation of Leishmania parasites in infected mouse peritoneal macrophages (SybrGreen staining, high-content imaging, 5 days). The assay is classed as cell-based, Leishmania donovani. To be noted: Leishmania donovani, Peritoneal macrophage.
The test system of assay [2] is Leishmania donovani axenic amastigote parasites. Nature of the assay: Leishmania donovani axenic amastigote proliferation assay (Cell TiterGlo luminescence, 2 day incubation). It counts as cell-based. The conditions noted are these: Leishmania donovani. For orientation: In ATP-based viability assays light output follows the ATP content of the culture.
In assay [3] the test system is Trypanosoma cruzi amastigotes (Tulahuen strain expressing Lac-Z) cultured in 3T3 fibroblast cells. The assay can be described thus: microbe, parasite or virus in culture. The assay is classed as cell-based. The conditions noted are these: Trypanosoma cruzi, TULAHUEN, Fibroblast.
Where [4] appears, read: L. donovani in mouse peritoneal macrophages, inhibition of proliferation, read-out: L. donovani Macrophage EC50.
The mark [5] stands for this setting: axenic amastigotes, inhibition of proliferation, read-out: L. donovani amastigotes EC50.
Where [6] appears, read: T. cruzi amastigotes in 3T3 fibroblast cells, inhibition of proliferation, read-out: T cruzi EC50.
[7] abbreviates: L. donovani in mouse peritoneal macrophages, read-out: L. donovani Macrophage EC50.
The mark [8] stands for this setting: L. donovani axenic amastigotes, read-out: L. donovani amastigotes EC50.
Setting [9] is: T. cruzi amastigotes in 3T3 fibroblast cells, read-out: T cruzi EC50.

Like-named read-outs stand apart in the source and are kept apart here.

Consider `CC(C)OC(=O)Nc1cnc2nc(-c3cc(NC(=O)N4CC(=O)C4)ccc3Cl)cn2c1` [Compound 279], for which the results for the EC50 in assay [1] (setting [4]), in assay [2] (setting [5]) and in assay [3] (setting [6]) were 9.59 µM, 2.44 µM and above 17.5 µM, respectively.
As for `O=C(Nc1ccc(F)c(-c2cn3cc(-c4ccccc4)cnc3n2)c1)c1ccc(F)o1` [Compound 576, 5-fluoro-N-(4-fluoro-3-(6-phenylimidazo[1,2-a]pyrimidin-2-yl)phenyl)furan-2-carboxamide], the values for the EC50 in assay [1] (setting [7]), in assay [2] (setting [8]) and in assay [3] (setting [9]) were 0.807 µM, 0.526 µM and 0.05 µM, respectively.
Turning to `CC(C)OC(=O)Nc1cnc2nc(-c3cc(NC(=O)N4CC(F)C4)ccc3Cl)cn2c1` [Compound 283], the EC50 is 0.724 µM in assay [1] (setting [4]), 0.244 µM in assay [2] (setting [5]) and 1.32 µM in assay [3] (setting [6]).
Consider `O=C(Nc1ccc(F)c(-c2cn3cc(-c4ccccn4)cnc3n2)c1)N1CC(F)C1` [Compound 400], for which the EC50 stood at 0.203 µM in assay [1] (setting [7]), 0.045 µM in assay [2] (setting [8]) and 0.199 µM in assay [3] (setting [9]).
For `CC(C)OC(=O)Nc1cnc2nc(-c3cc(NC(=O)N4CCC(N5CCOCC5)C4)ccc3Cl)cn2c1` (stereo not drawn) [Compound 273], the EC50 was above 50 µM in assay [1] (setting [4]), above 25 µM in assay [2] (setting [5]) and above 20 µM in assay [3] (setting [6]).
For `Cc1nc(C)c(C(=O)Nc2ccc(F)c(-c3cn4cc(C5=CCN(C(=O)OC(C)(C)C)CC5)cnc4n3)c2)o1` [Compound 347], in that order: 0.151 µM, 0.154 µM and 0.099 µM.
For `CCn1nccc1-c1cnc2nc(-c3cc(NC(=O)c4oc(C)nc4C)ccc3F)cn2c1` [Compound 387], the results for the EC50 in assay [1] (setting [7]), in assay [2] (setting [8]) and in assay [3] (setting [9]) were 0.286 µM, 0.086 µM and 0.149 µM, respectively.
Take `O=C(Nc1ccc(F)c(-c2cn3cc(-c4ccccn4)cnc3n2)c1)N1CCC1` [Compound 404]: the results for the EC50 in assay [1] (setting [7]), in assay [2] (setting [8]) and in assay [3] (setting [9]) were 0.034 µM, 0.011 µM and 0.017 µM, respectively.
As to `O=C(Nc1ccc(F)c(-c2cn3cc(C4CCOCC4)cnc3n2)c1)N1CCCC1` [Compound 419], the EC50 in assay [1] (setting [7]) turned out to be 0.182 µM; in assay [2] (setting [8]), 0.077 µM; in assay [3] (setting [9]) it was 0.114 µM.
As to `CC(C)OC(=O)Nc1cnc2nc(-c3cc(NC(=O)c4cnc(C5CC5)o4)ccc3F)cn2c1` [Compound 108], the EC50 worked out at 2.41 µM in assay [1] (setting [4]), 0.771 µM in assay [2] (setting [5]) and 1.19 µM in assay [3] (setting [6]).
For `CNc1ccc(-c2cnc3nc(-c4cc(NC(=O)N5CCCC5)ccc4F)cn3c2)cc1` [Compound 351], in that order: 0.13 µM, 0.071 µM and 0.095 µM.
For `CC(C)OC(=O)Nc1cnc2nc(-c3cc(NC(=O)c4ncc[nH]4)ccc3F)cn2c1` [Compound 92], in that order: above 28.9 µM, above 25 µM and above 20 µM.
For `CC(C)OC(=O)Nc1cnc2nc(-c3cc(NC(=O)NC4CC4)ccc3Cl)cn2c1` [Compound 285], in that order: 16.1 µM, 11.7 µM and 5.02 µM.
`CC(C)OC(=O)Nc1cnc2nc(-c3cc(NC(=O)c4cnc(Cl)s4)ccc3Cl)cn2c1` [Compound 51]: the EC50 in assay [1] (setting [4]) was found to be 9.33 µM; in assay [2] (setting [5]) it was 3.8 µM; in assay [3] (setting [6]), 1.49 µM.
For the molecule `CC(C)OC(=O)Nc1cnc2nc(-c3cc(NC(=O)N4CCN(C)CC4)ccc3Cl)cn2c1` [Compound 218], the values for the EC50 in assay [1] (setting [4]), in assay [2] (setting [5]) and in assay [3] (setting [6]) were 31.7 µM, above 25 µM and above 20 µM, respectively.
As to `Cc1nc(C)c(C(=O)Nc2ccc(F)c(-c3cn4cc(N5CCN(C)CC5)cnc4n3)c2)o1` [Compound 565, N-(4-fluoro-3-(6-(4-methylpiperazin-1-yl)imidazo[1,2-a]pyrimidin-2-yl)phenyl)-2,4-dimethyloxazole-5-carboxamide], the EC50 in assay [1] (read-out: L. donovani Macrophage EC50 (μM)) turned out to be 6.27 µM; in assay [2] (read-out: L. donovani amastigotes EC50 (μM)) it was 12.3 µM; in assay [3] (read-out: T cruzi EC50 (μM)) it was 11.2 µM.
For the molecule `COC(=O)CN1CCC(c2cnc3nc(-c4cc(NC(=O)c5oc(C)nc5C)ccc4F)cn3c2)CC1` [Compound 539, methyl 2-(4-(2-(5-(2,4-dimethyloxazole-5-carboxamido)-2-fluorophenyl)imidazo[1,2-a]pyrimidin-6-yl)piperidin-1-yl)acetate], the results for the EC50 in assay [2] (setting [8]) and in assay [3] (setting [9]) were 0.975 µM and 0.381 µM, respectively.
As to `CC(C)OC(=O)Nc1cnc2nc(-c3cc(NC(=O)N4CCC(=O)C4)ccc3Cl)cn2c1` [Compound 281], the EC50 was above 37.1 µM in assay [1] (setting [4]), 8.7 µM in assay [2] (setting [5]) and above 20 µM in assay [3] (setting [6]).
For `CC(=O)N[C@@H]1CCN(C(=O)Nc2ccc(Cl)c(-c3cn4cc(NC(=O)OC(C)C)cnc4n3)c2)C1` [Compound 271], the EC50 in assay [1] (setting [4]) was above 50 µM; in assay [2] (setting [5]), above 25 µM.
As to `Cc1nc(C)c(C(=O)Nc2ccc(F)c(-c3cn4cc(CC(C)C)cnc4n3)c2)o1` [Compound 590, N-(4-fluoro-3-(6-isobutylimidazo[1,2-a]pyrimidin-2-yl)phenyl)-2,4-dimethyloxazole-5-carboxamide], the figures for the EC50 in assay [1] (setting [7]) and in assay [2] (setting [8]) were 0.045 µM and 0.024 µM, respectively.
For `CC(C)OC(=O)Nc1cnc2nc(-c3cc(NC(=O)c4ccc[nH]4)ccc3F)cn2c1` [Compound 71], the EC50 in assay [1] (setting [4]) was determined as 3.23 µM; in assay [2] (setting [5]), 1.89 µM.
For `Cc1nc(C)c(C(=O)Nc2ccc(F)c(-c3cn4cc(-c5ncccc5C(F)(F)F)cnc4n3)c2)o1` [Compound 589], the EC50 in assay [1] (setting [7]) is 0.375 µM; in assay [2] (setting [8]), 0.022 µM.
Regarding `CC(C)OC(=O)Nc1cnc2nc(-c3cc(NC(=O)c4ccc(C#N)o4)ccc3F)cn2c1` [Compound 107], the EC50 in assay [1] (setting [4]) came to 0.298 µM; in assay [2] (setting [5]), 0.084 µM.
In the case of `Cc1nc(C)c(C(=O)Nc2ccc(F)c(-c3cn4cc(CC5CCC5)cnc4n3)c2)o1` [Compound 613, N-(3-(6-(cyclobutylmethyl)imidazo[1,2-a]pyrimidin-2-yl)-4-fluorophenyl)-2,4-dimethyloxazole-5-carboxamide], the EC50 is above 50 µM in assay [1] (setting [7]) and 0.03 µM in assay [2] (setting [8]).
For `CC(C)OC(=O)Nc1cnc2nc(-c3cccc(NC(=O)c4cnccn4)c3)cn2c1` [Compound 7], the figures for the EC50 in assay [1] (setting [4]) and in assay [2] (setting [5]) were 1.86 µM and 2.53 µM, respectively.
On to `CC(C)OC(=O)Nc1cnc2nc(-c3cc(NC(=O)N4CCC4C(=O)O)ccc3F)cn2c1` (stereo not drawn) [Compound 295], for which the EC50 in assay [1] (setting [4]) is above 50 µM; in assay [2] (setting [5]), above 25 µM.
Consider `Cc1nc(C)c(C(=O)Nc2ccc(F)c(-c3cn4cc(CC(C)(C)C)cnc4n3)c2)o1` [Compound 591], for which the values for the EC50 in assay [1] (setting [7]) and in assay [2] (setting [8]) were above 50 µM and 0.028 µM, respectively.
For `CC(C)OC(=O)Nc1cnc2nc(-c3cc(NC(=O)c4cnc(Cl)[nH]4)ccc3F)cn2c1` [Compound 100], the EC50 in assay [1] (setting [4]) was above 50 µM; in assay [2] (setting [5]), above 25 µM.
For `CNc1ccc(-c2cnc3nc(-c4cc(NC(=O)OCCOC)ccc4Cl)cn3c2)cc1` [Compound 36], in that order: 1.28 µM and 0.56 µM.
Take `Cc1nc(C)c(C(=O)Nc2ccc(F)c(-c3cn4cc(C(C)N(C)C)cnc4n3)c2)o1` (stereo not drawn) [Compound 619]: the EC50 in assay [1] (setting [7]) came to 0.929 µM; in assay [2] (setting [8]), 6.35 µM.
For `CC(C)OC(=O)Nc1cnc2nc(-c3cc(NC(=O)c4ncco4)ccc3F)cn2c1` [Compound 99], the EC50 in assay [1] (setting [4]) stood at 9.92 µM; in assay [2] (setting [5]), 2.98 µM.
For `CC(C)OC(=O)Nc1cnc2nc(-c3cc(NC(=O)N4CC(F)(F)C4)ccc3F)cn2c1` [Compound 289], in that order: 0.321 µM and 0.141 µM.

A word on the EC50: it is the concentration giving half of the maximal effect.

The record behind these values is patent publication US20160045505A1, “COMPOUNDS AND COMPOSITIONS FOR THE TREATMENT OF PARASITIC DISEASES” (NOVARTIS AG, priority 2013, published 2016).
